Results taken from PMC7286362 (Journal of medicinal chemistry, 2020).
Like-named read-outs stand apart in the source and are kept apart here.

Tests used:
PRMT6 [1] = molecular target: T1, PRMT6 (Homo sapiens, UniProt Q96LA8); experiment: KI and kinact determination from time-dependent IC50 values; assay type: biochemical; conditions: for time dependence of IC50 against PRMT6: preincubation 1 to 30 min, SPA
[2] = system: PKMTs, DNMTs, and type II, III PRMTs; experiment: Methyltransferase selectivity assay, PKMTs, DNMTs and type II, III PRMTs; assay type: biochemical; conditions: at 10 μM
PRMT3 [3] = molecular target: T2, PRMT3 (Homo sapiens, UniProt O60678); experiment: Mass spectrometry analysis of covalent binding, PRMT3; conditions: 15 μM protein, 300 μM compound, 1 h at rt
PRMT1 = PRMT1 (Homo sapiens, UniProt Q99873); experiment: Mass spectrometry analysis of covalent binding, PRMT1; conditions: 15 μM protein, 300 μM compound, 1 h at rt
type I PRMTs = experiment: Methyltransferase selectivity assay, type I PRMTs; assay type: biochemical
PRMT3 [4] = molecular target: T2, PRMT3; assay type: cell-based; conditions: HEK293T cells, 20 h, concentrations up to 20 μM
MCF-7 cells = experiment: Cell viability assay; assay type: cell-based; conditions: up to 20 μM, 3 days, CCK-8
PRMT4 = molecular target: T3, PRMT4 (Homo sapiens, UniProt Q86X55); experiment: Mass spectrometry analysis of covalent binding, PRMT4; conditions: 15 μM protein, 300 μM compound, 1 h at rt
T3 sequence (Q86X55 1-608): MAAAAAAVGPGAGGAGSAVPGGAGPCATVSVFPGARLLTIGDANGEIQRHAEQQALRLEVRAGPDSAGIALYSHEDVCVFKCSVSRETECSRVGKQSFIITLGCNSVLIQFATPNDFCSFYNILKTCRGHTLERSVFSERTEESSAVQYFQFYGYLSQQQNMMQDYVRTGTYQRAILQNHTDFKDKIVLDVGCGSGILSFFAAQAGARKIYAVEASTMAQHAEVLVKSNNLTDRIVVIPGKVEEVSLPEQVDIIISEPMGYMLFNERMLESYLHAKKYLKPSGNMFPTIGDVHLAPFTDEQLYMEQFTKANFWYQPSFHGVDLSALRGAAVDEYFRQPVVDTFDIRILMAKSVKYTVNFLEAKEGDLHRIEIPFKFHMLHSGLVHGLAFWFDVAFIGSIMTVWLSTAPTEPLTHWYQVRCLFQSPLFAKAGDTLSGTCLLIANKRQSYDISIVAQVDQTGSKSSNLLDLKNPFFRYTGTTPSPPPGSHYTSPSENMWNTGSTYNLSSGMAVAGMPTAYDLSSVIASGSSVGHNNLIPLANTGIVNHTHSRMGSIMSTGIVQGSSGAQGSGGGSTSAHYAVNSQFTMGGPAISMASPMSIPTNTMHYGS

[5] = system: PNT2 (a nontumorigenic prostate cell line); experiment: Cell viability assay; assay type: cell-based; conditions: up to 20 μM, 3 days, CCK-8
PRMT8 = PRMT8 (Homo sapiens, UniProt Q9NR22); experiment: Mass spectrometry analysis of covalent binding, PRMT8; conditions: 15 μM protein, 300 μM compound, 1 h at rt
[6] = molecular target: T4, endogenously expressed PRMT4 (Homo sapiens, UniProt Q86X55); experiment: Cellular PRMT4 assay: BAF155-Rme2a levels in MCF7 cells; assay type: cell-based; conditions: 2 days, concentrations up to 20 μM
T4 sequence (Q86X55 1-608): T3 sequence (Q86X55 1-608)

DNMT3A/3L = DNMT3A/3L (Homo sapiens, UniProt Q9Y6K1); experiment: Methyltransferase selectivity assay, DNMT3A/3L; assay type: biochemical; conditions: read-out: inhibition of DNMT3A/3L
PRMT6 [7] = molecular target: T1, PRMT6; experiment: Mass spectrometry analysis of covalent binding, PRMT6; conditions: 15 μM protein, 300 μM compound, 1 h at rt
HEK293T cells = experiment: Cell viability assay; assay type: cell-based; conditions: up to 20 μM, 3 days, CCK-8
PRMT6 [8] = molecular target: T1, PRMT6; assay type: cell-based; conditions: for inhibition of H3R2me2a in cells: PRMT6-transfected HEK293T cells, 20 h
PRMT6 [9] = molecular target: T1, PRMT6; experiment: Scintillation proximity assay; assay type: biochemical; conditions: SPA, 1 h preincubation

T1 sequence (Q96LA8 whole entry): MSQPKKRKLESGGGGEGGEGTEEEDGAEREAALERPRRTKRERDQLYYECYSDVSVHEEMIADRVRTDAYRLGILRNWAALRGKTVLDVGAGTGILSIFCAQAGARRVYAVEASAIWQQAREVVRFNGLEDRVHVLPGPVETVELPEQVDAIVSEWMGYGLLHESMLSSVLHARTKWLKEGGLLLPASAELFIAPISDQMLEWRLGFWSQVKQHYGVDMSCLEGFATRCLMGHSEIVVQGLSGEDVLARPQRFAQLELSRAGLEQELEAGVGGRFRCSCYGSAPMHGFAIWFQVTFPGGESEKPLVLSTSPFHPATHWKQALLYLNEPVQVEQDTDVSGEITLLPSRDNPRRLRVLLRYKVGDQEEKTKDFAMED
T2 sequence (O60678 whole entry, species assumed): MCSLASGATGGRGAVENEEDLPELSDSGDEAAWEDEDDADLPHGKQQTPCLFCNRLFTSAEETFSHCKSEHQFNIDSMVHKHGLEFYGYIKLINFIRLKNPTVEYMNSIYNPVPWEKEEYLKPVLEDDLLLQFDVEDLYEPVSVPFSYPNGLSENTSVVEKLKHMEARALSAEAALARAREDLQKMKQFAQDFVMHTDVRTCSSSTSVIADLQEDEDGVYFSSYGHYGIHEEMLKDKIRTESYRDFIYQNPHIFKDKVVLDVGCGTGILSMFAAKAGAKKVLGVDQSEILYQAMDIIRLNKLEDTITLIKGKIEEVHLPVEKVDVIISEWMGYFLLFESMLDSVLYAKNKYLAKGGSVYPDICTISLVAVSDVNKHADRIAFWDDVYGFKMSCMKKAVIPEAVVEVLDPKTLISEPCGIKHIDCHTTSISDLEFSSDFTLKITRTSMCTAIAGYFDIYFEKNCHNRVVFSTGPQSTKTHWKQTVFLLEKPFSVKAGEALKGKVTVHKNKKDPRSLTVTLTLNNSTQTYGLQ
Chain of DNMT3A/3L (Q9Y6K1 whole entry, looked up, species assumed): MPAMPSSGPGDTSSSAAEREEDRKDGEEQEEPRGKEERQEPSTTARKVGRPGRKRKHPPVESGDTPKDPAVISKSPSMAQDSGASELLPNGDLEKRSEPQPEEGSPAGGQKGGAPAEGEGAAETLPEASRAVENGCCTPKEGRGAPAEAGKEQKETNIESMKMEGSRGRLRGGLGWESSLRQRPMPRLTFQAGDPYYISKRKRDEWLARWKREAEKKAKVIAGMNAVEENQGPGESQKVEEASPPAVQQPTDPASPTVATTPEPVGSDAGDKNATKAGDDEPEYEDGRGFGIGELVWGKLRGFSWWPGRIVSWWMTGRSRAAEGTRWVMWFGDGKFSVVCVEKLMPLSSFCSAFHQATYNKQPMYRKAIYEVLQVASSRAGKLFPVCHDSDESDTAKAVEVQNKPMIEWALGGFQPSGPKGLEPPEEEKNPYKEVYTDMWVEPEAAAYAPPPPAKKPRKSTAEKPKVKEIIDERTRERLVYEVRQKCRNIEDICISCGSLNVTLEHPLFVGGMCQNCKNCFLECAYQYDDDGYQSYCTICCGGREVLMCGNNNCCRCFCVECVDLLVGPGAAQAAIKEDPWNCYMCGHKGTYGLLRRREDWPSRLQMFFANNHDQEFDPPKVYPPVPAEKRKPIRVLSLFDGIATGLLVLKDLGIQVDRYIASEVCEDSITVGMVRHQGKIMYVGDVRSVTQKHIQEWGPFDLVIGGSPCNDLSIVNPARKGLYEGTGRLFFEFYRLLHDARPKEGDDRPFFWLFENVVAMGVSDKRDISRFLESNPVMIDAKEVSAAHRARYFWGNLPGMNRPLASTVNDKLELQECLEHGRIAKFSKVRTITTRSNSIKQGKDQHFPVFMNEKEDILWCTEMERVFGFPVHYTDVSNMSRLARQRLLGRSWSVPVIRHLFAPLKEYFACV
Chain of DNMT3A/3L (Q9UJW3 whole entry partner, species assumed): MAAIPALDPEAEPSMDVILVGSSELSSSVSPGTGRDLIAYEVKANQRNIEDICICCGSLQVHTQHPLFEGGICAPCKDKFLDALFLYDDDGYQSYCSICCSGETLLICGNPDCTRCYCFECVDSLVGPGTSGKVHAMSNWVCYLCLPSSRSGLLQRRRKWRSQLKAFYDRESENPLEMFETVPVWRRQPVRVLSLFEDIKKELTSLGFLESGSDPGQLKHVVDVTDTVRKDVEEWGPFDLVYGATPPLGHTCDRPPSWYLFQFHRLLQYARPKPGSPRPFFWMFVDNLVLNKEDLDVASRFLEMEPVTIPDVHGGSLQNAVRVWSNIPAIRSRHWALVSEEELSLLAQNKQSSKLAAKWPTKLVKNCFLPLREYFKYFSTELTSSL
Chain of PRMT1 (Q99873 whole entry, species assumed): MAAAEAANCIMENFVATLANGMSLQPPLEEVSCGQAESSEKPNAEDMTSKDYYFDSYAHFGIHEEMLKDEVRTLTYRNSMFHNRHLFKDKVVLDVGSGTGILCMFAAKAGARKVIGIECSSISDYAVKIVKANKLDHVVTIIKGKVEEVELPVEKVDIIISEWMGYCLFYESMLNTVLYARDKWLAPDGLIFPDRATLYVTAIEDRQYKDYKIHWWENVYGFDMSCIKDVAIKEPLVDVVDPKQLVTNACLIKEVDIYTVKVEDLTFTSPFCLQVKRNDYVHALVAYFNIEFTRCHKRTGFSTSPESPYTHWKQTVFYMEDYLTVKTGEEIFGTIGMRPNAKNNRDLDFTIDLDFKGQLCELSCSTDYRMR
Chain of PRMT8 (Q9NR22 whole entry, species assumed): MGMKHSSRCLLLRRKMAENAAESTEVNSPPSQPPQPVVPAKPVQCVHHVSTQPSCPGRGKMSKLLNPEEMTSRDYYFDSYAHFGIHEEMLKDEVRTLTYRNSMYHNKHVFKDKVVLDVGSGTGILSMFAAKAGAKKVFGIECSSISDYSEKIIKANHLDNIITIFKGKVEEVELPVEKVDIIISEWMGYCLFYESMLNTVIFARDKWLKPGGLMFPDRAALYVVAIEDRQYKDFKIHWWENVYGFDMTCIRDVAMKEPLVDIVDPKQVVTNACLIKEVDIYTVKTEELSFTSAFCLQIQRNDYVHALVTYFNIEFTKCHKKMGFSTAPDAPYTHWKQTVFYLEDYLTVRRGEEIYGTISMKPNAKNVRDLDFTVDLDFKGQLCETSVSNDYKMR

SMILES | time dependence of IC50 against PRMT6 (PRMT6 [1]) | inhibition of type I PRMTs (type I PRMTs; at 10 μM) [%] | inhibition of type I PRMTs (type I PRMTs; at 50 μM) [%] | reduction of PRMT3-dependent H4R3me2a in cells (PRMT3 [4]) | cytotoxicity in MCF-7 cells (MCF-7 cells) | cytotoxicity in PNT2 cells [5] | reduction of BAF155-Rme2a levels in cells [6] | covalent modification of PRMT6 (MS adduct) (PRMT6 [7]) | cytotoxicity in HEK293T cells (HEK293T cells) | inhibition of H3R2me2a in cells (PRMT6 [8]; concentrations up to 10 μM) | also measured
C=CC(=O)Nc1cccc(-c2c[nH]cc2CN(C)CCN)c1 [Compound 4, N-(3-(4-(((2-Aminoethyl)(methyl)amino)methyl)-1H-pyrrol-3-yl)-phenyl)acrylamide] | time-dependent potencies | > 90 | > 50 | did not significantly reduce this mark | not cytotoxic | not cytotoxic | did not reduce | adduct with mass equal to PRMT6 plus compound 4, with no detectable unmodified PRMT6 | not cytotoxic |  | kinact/KI (PRMT6 [1]): 83000 M⁻¹ s⁻¹; inhibition of PKMTs, DNMTs, and type II, III PRMTs [2]: did not significantly inhibit; covalent modification of PRMT3 (MS adduct) (PRMT3 [3]): no adducts with other type I PRMTs could be detected; covalent modification of PRMT1 (MS adduct) (PRMT1): no adducts with other type I PRMTs could be detected; covalent modification of PRMT4 (MS adduct) (PRMT4): no adducts with other type I PRMTs could be detected; covalent modification of PRMT8 (MS adduct) (PRMT8): no adducts with other type I PRMTs could be detected; inhibition at 50 µM (DNMT3A/3L): > 50%; selectivity for PRMT6 over PRMT1 in cells (PRMT6 [8]; from cellular assays): ~ 4 fold; selectivity for PRMT6 over PRMT4 in cells (PRMT6 [8]; from cellular assays): > 20 fold
CCC(=O)Nc1cccc(-c2c[nH]cc2CN(C)CCN)c1 [Compound 5, N-(3-(4-(((2-Aminoethyl)(methyl)amino)methyl)-1H-pyrrol-3-yl)-phenyl)propionamide] | no significant change in IC50 values | > 40 | > 80 | did not significantly reduce this mark | not cytotoxic | not cytotoxic | did not reduce | neither compound 5 nor compound 7 could modify PRMT6 in a detected level | not cytotoxic | inhibited H3R2me2a, but was less effective than compound 4 | pIC50 against PRMT6 (PRMT6 [9]): 7.6 ± 0.1
C=CC(=O)Nc1cccc(-c2c[nH]cc2CN(C)CCO)c1 [Compound 7, N-(3-(4-(((2-Hydroxyethyl)(methyl)amino)methyl)-1H-pyrrol-3-yl)phenyl)acrylamide] |  |  |  | did not significantly reduce this mark | not cytotoxic | not cytotoxic | did not reduce | neither compound 5 nor compound 7 could modify PRMT6 in a detected level | not cytotoxic | did not significantly inhibit H3R2me2a | 
CC(C)Oc1ccc(-c2c[nH]cc2CN(C)CCN)cc1 [MS023, reference compound] |  |  |  |  |  |  |  |  |  |  | inhibition of H3R2me2a in cells (PRMT6 [8]; at 2 μM (positive control)): effectively inhibited H3R2me2a
